pEC50: −log10 of the molar value.
Key:
[1] = tested on: MDA-MB-468 (breast cancer); assay: NCI-60 five-dose assay; type: cell-based, human; conditions: Homo sapiens, five-dose screen
[2] = in vitro; conditions: dog
[3] = tested on: M14 (melanoma cell line); assay: NCI-60 five-dose assay
[4] = tested on: IAV strain A/PR/8/34 (H1N1); assay: microbe, parasite or virus in culture; conditions: Influenza A virus, MDCK, read-out: IAV/MDCK EC50
[5] = tested on: SK-MEL-2 (melanoma cell line); assay: NCI-60 five-dose assay
[6] = tested on: SK-MEL-5 (melanoma cell line); assay: NCI-60 five-dose assay
[7] = tested on: HCC-2998 (colon cancer cell line); assay: NCI-60 five-dose assay; type: cell-based, human; conditions: Homo sapiens, five doses (10^−4–10^−8 M), read-out: Growth inhibition 50 (GI50)
[8] = tested on: IAV strain A/PR/8/34 (H1N1); conditions: preliminary screening
[9] = tested on: SK-MEL-28 (melanoma cell line); assay: NCI-60 five-dose assay; conditions: Homo sapiens
[10] = tested on: RXF 393 (renal cancer cells); assay: NCI-60 five-dose assay; type: cell-based, human; conditions: Homo sapiens, five-dose screen
[11] = tested on: UO-31 (renal cancer cell line); assay: NCI-60 single-dose assay; type: cell-based, human; conditions: Homo sapiens, UO-31, read-out: growth inhibition (GI%) and cytotoxicity (negative values)
In short: (§1)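 NCI-60 one-dose format: each compound is tested at a single dose against human tumour lines for cytotoxic effect.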

[12] = tested on: NCI-H23 (non-small cell lung cancer cell line); assay: NCI-60 single-dose assay; type: cell-based, human; conditions: Homo sapiens, NCI-H23, read-out: growth inhibition (GI%) and cytotoxicity (negative values)
In short: as §1

[13] = tested on: HT29 (colon cancer cell line); assay: NCI-60 single-dose assay; type: cell-based, human; conditions: human
In short: as §1

[14] = tested on: CAKI-1 (renal cancer cell line); assay: NCI-60 single-dose assay; type: cell-based, human; conditions: human
In short: as §1

[15] = tested on: COLO 205 (colon cancer cell line); assay: NCI-60 single-dose assay; type: cell-based, human; conditions: human
In short: as §1

[16] = tested on: MALME-3M (melanoma cell line); assay: NCI-60 single-dose assay; type: cell-based, human; conditions: human
In short: as §1

[17] = tested on: MDA-MB-231/ATCC (breast cancer cell line); assay: NCI-60 single-dose assay; type: cell-based, human; conditions: Homo sapiens, MDA-MB-231, read-out: growth inhibition (GI%) and cytotoxicity (negative values)
In short: as §1

[18] = tested on: SN12C (renal cancer cell line); assay: NCI-60 single-dose assay; type: cell-based, human; conditions: Homo sapiens, read-out: growth inhibition (GI%) and cytotoxicity (negative values)
In short: as §1

[19] = tested on: MDA-MB-435 (melanoma cell line); assay: NCI-60 single-dose assay; type: cell-based, human; conditions: human
In short: as §1

[20] = tested on: SR (leukemia cell line); assay: NCI-60 single-dose assay; type: cell-based, human; conditions: Homo sapiens, read-out: growth inhibition (GI%) and cytotoxicity (negative values)
In short: as §1

[21] = tested on: NCI-H226 (non-small cell lung cancer cell line); assay: NCI-60 single-dose assay; type: cell-based, human; conditions: Homo sapiens, NCI-H226, read-out: growth inhibition (GI%) and cytotoxicity (negative values)
In short: as §1

[22] = tested on: HCT-15 (colon cancer cell line); assay: NCI-60 single-dose assay; type: cell-based, human; conditions: human
In short: as §1

[23] = tested on: RPMI-8226 (leukemia cell line); assay: NCI-60 single-dose assay; type: cell-based, human; conditions: Homo sapiens, RPMI-8226, read-out: growth inhibition (GI%) and cytotoxicity (negative values)
In short: as §1

[24] = tested on: T-47D (breast cancer cell line); assay: NCI-60 single-dose assay; type: cell-based, human; conditions: Homo sapiens, T47D, read-out: growth inhibition (GI%) and cytotoxicity (negative values)
In short: as §1

[25] = tested on: MCF-7 (breast cancer cell line); assay: NCI-60 single-dose assay; type: cell-based, human; conditions: Homo sapiens, MCF7, read-out: growth inhibition (GI%) and cytotoxicity (negative values), MCF-7, 10^−5 M
In short: as §1

[26] = tested on: SK-MEL-2 (melanoma cell line); assay: NCI-60 single-dose assay; type: cell-based, human; conditions: Homo sapiens, SK-MEL-2, read-out: growth inhibition (GI%) and cytotoxicity (negative values)
In short: as §1

[27] = tested on: NCI-H522 (non-small cell lung cancer cell line); assay: NCI-60 single-dose assay; type: cell-based, human; conditions: Homo sapiens, NCI-H522, read-out: growth inhibition (GI%) and cytotoxicity (negative values)
In short: as §1

[28] = tested on: K-562 (leukemia cell line); assay: NCI-60 five-dose assay; type: cell-based, human; conditions: Homo sapiens, K562, five doses (10^−4–10^−8 M), read-out: Growth inhibition 50 (GI50)
[29] = tested on: LOX IMVI (melanoma cell line); assay: NCI-60 five-dose assay

For `CCN1CCC[C@H]1CNC(=O)c1[nH]c2c(c1Cl)CCCc1ccccc1-2` [Compound 1, (S)-3-Chloro-N-(1-ethyl-2-pyrrolidinylmethyl)-5,6-dihydro-4H-benzo[6,7]cyclohepta[1,2-b]pyrrol-2-carboxamide], the GI50 [1] was 2680 nM, the CC50 [2] was 1750 nM and the GI50 ([3]; Homo sapiens, M14, read-out: Growth inhibition 50 (GI50)) was 2030 nM. The CC50 ([3]; Homo sapiens, M14, read-out: LC50 (molar concentration leading to 50% net cell death)) was 9.12 µM, the “TGI (molar concentration giving total growth inhibition)” value ([3]; M14) was 4.36 µM and the pEC50 [4] was 4.75. For the same compound, the GI50 ([5]; Homo sapiens, SK-MEL-2, read-out: Growth inhibition 50 (GI50)) was 9.38 µM, the CC50 ([5]; Homo sapiens, SK-MEL-2, read-out: LC50 (molar concentration leading to 50% net cell death)) was 46.8 µM and the “TGI (molar concentration giving total growth inhibition)” value ([5]; SK-MEL-2) was 21.34 µM. For the same compound, the GI50 ([6]; Homo sapiens, SK-MEL-5, read-out: Growth inhibition 50 (GI50)) was 1680 nM, the CC50 ([6]; Homo sapiens, SK-MEL-5, read-out: LC50 (molar concentration leading to 50% net cell death)) was 5.62 µM and the “TGI (molar concentration giving total growth inhibition)” value ([6]; SK-MEL-5) was 3.09 µM. The GI50 [7] was 2980 nM, the “IAV/MDCK SI” value [8] was 0.10 and the GI50 ([9]; SK-MEL-28, read-out: Growth inhibition 50 (GI50)) was 1870 nM. The CC50 ([9]; SK-MEL-28, read-out: LC50 (molar concentration leading to 50% net cell death)) was 7.24 µM, the GI50 [10] was 2700 nM and the inhibition at 10 µM [11] was 83%. The inhibition at 10 µM [12] was less than 60%, the “growth inhibition (GI%) and cytotoxicity (negative values)” value (“growth inhibition (GI%) and cytotoxicity” for short) [13] was −32.25% and the “growth inhibition (GI%) and cytotoxicity” value [14] was −27.03%. The “growth inhibition (GI%) and cytotoxicity” value [15] was −52.22%, the “growth inhibition (GI%) and cytotoxicity” value [16] was −90.67% and the inhibition at 10 µM [17] was 89%. For the same compound, the inhibition at 10 µM [18] was less than 60%, the “growth inhibition (GI%) and cytotoxicity” value [19] was −78.15% and the inhibition at 10 µM [20] was 96.3%. The inhibition at 10 µM [21] was less than 60%, the “growth inhibition (GI%) and cytotoxicity” value [22] was −52.66% and the inhibition at 10 µM [23] was 98.6%. The inhibition at 10 µM [24] was 66.2%, the inhibition at 10 µM [25] was 87.2% and the inhibition at 10 µM [26] was 85.8%. The inhibition at 10 µM [27] was 73.5%, the GI50 [28] was 1760 nM and the “TGI (molar concentration giving total growth inhibition)” value [29] was 3.39 µM. It also gave a GI50 ([29]; Homo sapiens, read-out: Growth inhibition 50 (GI50)) of 1760 nM and a CC50 ([29]; Homo sapiens, read-out: LC50 (molar concentration leading to 50% net cell death)) of 6.31 µM.

From article PMC12566046, “Arylpiperazinyl-Benzocycloheptapyrrole-Carboxamides Endowed with Dual Anticancer and Antiviral Activities” (Molecules, 2025)
